ChEMBL document CHEMBL1139154, “Inhibitors of HCV NS5B polymerase: synthesis and structure-activity relationships of unsymmetrical 1-hydroxy-4,4-dialkyl-3-oxo-3,4-dihydronaphthalene benzothiadiazine derivatives” (Bioorg Med Chem Lett, 2007)

Experiments:
[1] = Inhibition of HCV 1a NS5B polymerase; set-up: species or system Hepatitis C virus subtype 1a
[2] = system: Hepatitis C virus; assay: Antiviral activity against HCV 1a replicon in presence of fetal calf serum; format: functional, organism-based, Hepacivirus hominis; conditions: subtype 1a
[3] = system: Hepatitis C virus; assay: Inhibition of HCV 1b NS5B polymerase; set-up: species or system Hepatitis C virus subtype 1b

SMILES | IC50 [1] [nM] | EC50 [2] [nM] | IC50 [3] [nM]
CCCC1(C)C(=O)C(C2=NS(=O)(=O)c3cc(NS(C)(=O)=O)ccc3N2)=C(O)c2ccccc21 (stereo not drawn) | 20 | 184 | 
C=CCC1(C)C(=O)C(C2=NS(=O)(=O)c3cc(NS(C)(=O)=O)ccc3N2)=C(O)c2ccccc21 (stereo not drawn) | 18 | 690 | 225
CC(C)=CCC1(C)C(=O)C(C2=NS(=O)(=O)c3cc(NS(C)(=O)=O)ccc3N2)=C(O)c2ccccc21 (stereo not drawn) | 38 | 237 | 147
CC1(C/C=C/c2ccccc2)C(=O)C(C2=NS(=O)(=O)c3cc(NS(C)(=O)=O)ccc3N2)=C(O)c2ccccc21 (stereo not drawn) | 460 |  | 1850
CC1(CC=C2CCC2)C(=O)C(C2=NS(=O)(=O)c3cc(NS(C)(=O)=O)ccc3N2)=C(O)c2ccccc21 (stereo not drawn) | 87 | 1190 | 425
CC1(CC=C2CCCC2)C(=O)C(C2=NS(=O)(=O)c3cc(NS(C)(=O)=O)ccc3N2)=C(O)c2ccccc21 (stereo not drawn) | 93 | 1490 | 550
CC1(CC=C2CCCCC2)C(=O)C(C2=NS(=O)(=O)c3cc(NS(C)(=O)=O)ccc3N2)=C(O)c2ccccc21 (stereo not drawn) | 195 |  | 910
CCOC(=O)/C=C/CC1(C)C(=O)C(C2=NS(=O)(=O)c3cc(NS(C)(=O)=O)ccc3N2)=C(O)c2ccccc21 (stereo not drawn) | 1080 | > 10000 | 5870
CC1(C)C(=O)C(C2=NS(=O)(=O)c3cc(NS(C)(=O)=O)ccc3N2)=C(O)c2ccccc21 | 933 |  | 
CC(C)CCC1(C)C(=O)C(C2=NS(=O)(=O)c3cc(NS(C)(=O)=O)ccc3N2)=C(O)c2ccccc21 (stereo not drawn) | 4 | 17 | 7
CC1(CCCc2ccccc2)C(=O)C(C2=NS(=O)(=O)c3cc(NS(C)(=O)=O)ccc3N2)=C(O)c2ccccc21 (stereo not drawn) | 115 |  | 280
CC1(CCC2CCC2)C(=O)C(C2=NS(=O)(=O)c3cc(NS(C)(=O)=O)ccc3N2)=C(O)c2ccccc21 (stereo not drawn) | 16 | 190 | 36
CC1(CCC2CCCC2)C(=O)C(C2=NS(=O)(=O)c3cc(NS(C)(=O)=O)ccc3N2)=C(O)c2ccccc21 (stereo not drawn) | 32 | 320 | 70
CC(C)(O)CCC1(C)C(=O)C(C2=NS(=O)(=O)c3cc(NS(C)(=O)=O)ccc3N2)=C(O)c2ccccc21 (stereo not drawn) | 43 | 8000 | 193
CC(C)(Cl)CCC1(C)C(=O)C(C2=NS(=O)(=O)c3cc(NS(C)(=O)=O)ccc3N2)=C(O)c2ccccc21 (stereo not drawn) | 39 | 2170 | 70
CC1(CC2CC2)C(=O)C(C2=NS(=O)(=O)c3cc(NS(C)(=O)=O)ccc3N2)=C(O)c2ccccc21 (stereo not drawn) | 21 | 160 | 40
CC1(CCCO)C(=O)C(C2=NS(=O)(=O)c3cc(NS(C)(=O)=O)ccc3N2)=C(O)c2ccccc21 (stereo not drawn) |  | 860 | 
CC(C)=CC[C@@]1(C)C(=O)C(C2=NS(=O)(=O)c3cc(NS(C)(=O)=O)ccc3N2)=C(O)c2ccccc21 | 19 | 134 | 32
CC(C)=CC[C@]1(C)C(=O)C(C2=NS(=O)(=O)c3cc(NS(C)(=O)=O)ccc3N2)=C(O)c2ccccc21 | 702 |  | 
CC1(CCC2CCCCC2)C(=O)C(C2=NS(=O)(=O)c3cc(NS(C)(=O)=O)ccc3N2)=C(O)c2ccccc21 (stereo not drawn) | 57 | 2710 | 194
CC1(CC(O)CO)C(=O)C(C2=NS(=O)(=O)c3cc(NS(C)(=O)=O)ccc3N2)=C(O)c2ccccc21 (stereo not drawn) | 450 |  | 
CC(C)CCC1(CCC(C)C)C(=O)C(C2=NS(=O)(=O)c3cc(NS(C)(=O)=O)ccc3N2)=C(O)c2ccccc21 | 68 | 423 | 
